# Experimental data: paper PMC2014744, “A novel p38α MAPK inhibitor suppresses brain proinflammatory cytokine up-regulation and attenuates synaptic dysfunction and behavioral deficits in an Alzheimer's disease mouse model” (Journal of Neuroinflammation, 2007)
# Entries after “also recorded” stand apart in the source; their conditions may differ.
# How the values were obtained:
# [1] = Stability in human liver microsomes; type: in vitro ADME; details: 5 μM compound; for metabolic stability in human liver microsomes compared with 069A (in words): Fig. 4D, 10 or 30 min incubation
# Protocol: Briefly, triplicate reaction mixtures contained 0.1 M potassium phosphate buffer (pH 7.4) and a final concentration of the following components: 1 – 1.6 mg/ml total microsomal protein, 5 μM test compound, 1.3 mM NADPH, 3.3 mM MgCl2, 0.4 U/ml glucose-6-phosphate dehydrogenase, and 3.3 mM glucose-6-phosphate in a total volume of 300 μl. Mixtures were incubated at 37°C for 10 or 30 minutes. […] HPLC was performed as described above with 0.1% (v/v) formic acid in water as reagent A and acetonitrile with 0.1% (v/v) formic acid in water as reagent B. Peak quantification was done based upon absorption measurements at 260 nm relative to a standard curve obtained by serial dilutions of compounds.
# [2] = tested on: C57Bl/6 mice infused ICV with human oligomeric Aβ1–42; assay: AD mouse model (ICV infusion of human oligomeric Aβ1–42): Y-maze spontaneous alternation; type: in vivo; details: 2.5 mg/kg oral once daily for 2 weeks from day 21; Y-maze days 50-60
# Protocol: (§1) The four-week intracerebroventricular (ICV) infusion of human oligomeric Aβ1-42 or Hepes/HDL vehicle into C57Bl/6 mice was done as previously described. Mice were administered by oral gavage either […] (2.5 mg/kg) or solvent control (DMSO) in a 0.5% (w/v) carboxymethylcellulose suspension. Compound administration began at day 21 after the start of Aβ infusion, and continued on a once daily administration schedule for 14 days. Beginning at day 50 after the start of Aβ infusion, the Y-maze test of spontaneous alternation was done once daily for 10 days to evaluate hippocampal-dependent spatial learning as described previously. At day 60, mice were anesthetized, perfused, and sacrificed as previously described. Hippocampal extract supernatants were prepared by dounce and sonication, followed by centrifugation as described previously. Levels of the proinflammatory cytokines IL-1β and TNFα in hippocampal supernatants were measured by ELISA (Biosource International) per the manufacturer's instructions. S100B and synaptophysin levels were measured by ELISA as previously described.
# C57Bl/6 mice = assay: Liver toxicity screen (histology after two weeks of daily oral dosing); type: in vivo; details: 2.5 mg/kg oral gavage once daily for 2 weeks
# Protocol: Screening for histological liver injury after chronic, therapeutic dose administration of compound was done as previously described. Briefly, C57Bl/6 mice were administered by oral gavage either […] (2.5 mg/kg) or solvent control (DMSO) in a 0.5% (w/v) carboxymethylcellulose suspension. Compound or vehicle administration was once daily for two weeks. Livers were then removed, fixed in 4% (v/v) paraformaldehyde, and paraffin-embedded for histology. To assess histological toxicity, 4 μm liver sections were stained with haematoxylin and eosin. Two independent observers blinded to the treatment groups performed microscopic assessment of the tissue for injury by using a semi-quantitative histological scoring system that considers architecture features (normal to extensive fibrosis), cellular features (normal to extensive edema and widespread necrosis), and degree of inflammatory infiltrate (normal to extensive infiltrate).
# [3] = Oral bioavailability: compound in plasma after oral gavage; type: in vivo, C57Bl/6 mice; details: mice, 2.5 mg/kg oral gavage; earliest time point analyzed
# Protocol: (§2) Analysis of oral bioavailability (concentration of compound in the blood as a function of time after oral administration) and brain uptake was done by a modification of that previously described. Briefly, 069A (2.5 mg/kg) was administered to C57Bl/6 mice by oral gavage in a 0.5% (w/v) carboxymethylcellulose suspension. At 5, 15, 30, 60, and 120 min after compound administration, blood was collected in heparinized tubes from anesthetized animals and plasma obtained by centrifugation. After perfusion, brains were harvested, homogenized in 0.1% formic acid and deproteinized with ice-cold acetonitrile. After centrifugation to remove precipitated protein, the brain homogenate supernatants were further diluted with 0.1% formic acid. The plasma samples were acidified by diluting with 0.1% formic acid (1:3, v:v). Solid phase extraction followed by HPLC analysis was used to quantify the amount of compound in the plasma and brain supernatants, with compound MW01-6-189WH used as an internal standard. Briefly, 30 mg cartridges (Oasis® HLB, Waters) were conditioned with 1 mL of acetonitrile and equilibrated with 1 mL of water. Acidified samples were loaded onto the cartridge followed by a 1 mL wash with 5% acetonitrile. Compound was eluted from the cartridge using 100% acetonitrile. The eluate was evaporated to dryness, reconstituted in 60% acetonitrile/0.1% formic acid/water and analyzed by HPLC. […]
# MKK4 = biological target: T1, MKK4 (Mus musculus, UniProt P47809); assay: Millipore/Upstate kinase profiling: MKK4; type: biochemical; details: 20 μM compound; 90 μM ATP; activity without inhibitor = 100%
# T1 construct: purchased Millipore (KinaseProfiler kinase screening service)
# T1 sequence (P47809 1-397): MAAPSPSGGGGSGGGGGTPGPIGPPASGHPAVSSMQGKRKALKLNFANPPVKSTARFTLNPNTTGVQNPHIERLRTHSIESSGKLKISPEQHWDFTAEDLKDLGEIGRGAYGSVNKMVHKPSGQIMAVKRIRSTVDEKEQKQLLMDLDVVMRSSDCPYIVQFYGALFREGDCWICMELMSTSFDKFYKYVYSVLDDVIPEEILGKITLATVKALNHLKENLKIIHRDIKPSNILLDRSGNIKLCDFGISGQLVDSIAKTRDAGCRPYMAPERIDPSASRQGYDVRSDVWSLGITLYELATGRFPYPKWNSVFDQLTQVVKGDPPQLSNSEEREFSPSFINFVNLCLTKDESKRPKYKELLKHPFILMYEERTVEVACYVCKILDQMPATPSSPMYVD
# [4] = Lipophilicity determination (log P), shake-flask; type: physicochemical; details: 1-octanol/water shake-flask, 25°C
# Protocol: The partition coefficient was determined by the shake-flask method. The starting solution (0.3 mg/mL) of analyzed compound was prepared in presaturated 1-octanol (Sigma-Aldrich, St. Louis, MO). 1 mL of the octanol phase was agitated on a plate shaker with 10 mL of presaturated Milli-Q water for 2 hrs at 25°C. After partitioning, 1 mL of the aqueous phase was centrifuged in a microfuge for 10 min at 16,000 × g. 20 μL of the sample were analyzed with reversed-phase HPLC as described above to determine the concentration of the aqueous phase (caq). The log P is calculated according to the formula: log P = log10 [(0.3 – caq)/caq].
# [5] = Aqueous solubility determination (log S); type: physicochemical; details: thermodynamic from solid, Milli-Q water, 22°C
# Protocol: For aqueous solubility (log S) determination, compound 069A was weighed on a Sartorius AG (Goettingen, Germany) analytical balance, and Milli-Q water was added to create an oversaturated solution (suspension). Sample tubes were stirred for 24 hrs at ambient temperature (t = 22°C). 1 mL of the samples were centrifuged in a microfuge at 16,000 × g for 10 min, and 20 μL was subjected to reverse-phase HPLC analysis to determine the concentration of the compound (caq). The concentration of compound in the aqueous phase (caq) was determined by peak detection at 254 nm at the appropriate retention time relative to a standard curve obtained from serial dilutions of the compound. The log S was calculated as common logarithm (log10) of caq.
# MKK7β = biological target: T2, MKK7β (Homo sapiens, UniProt O14733); assay: Millipore/Upstate kinase profiling: MKK7β; type: biochemical; details: 20 μM compound; 90 μM ATP; activity without inhibitor = 100%
# T2 construct: purchased Millipore (KinaseProfiler kinase screening service)
# T2 sequence (O14733 1-419): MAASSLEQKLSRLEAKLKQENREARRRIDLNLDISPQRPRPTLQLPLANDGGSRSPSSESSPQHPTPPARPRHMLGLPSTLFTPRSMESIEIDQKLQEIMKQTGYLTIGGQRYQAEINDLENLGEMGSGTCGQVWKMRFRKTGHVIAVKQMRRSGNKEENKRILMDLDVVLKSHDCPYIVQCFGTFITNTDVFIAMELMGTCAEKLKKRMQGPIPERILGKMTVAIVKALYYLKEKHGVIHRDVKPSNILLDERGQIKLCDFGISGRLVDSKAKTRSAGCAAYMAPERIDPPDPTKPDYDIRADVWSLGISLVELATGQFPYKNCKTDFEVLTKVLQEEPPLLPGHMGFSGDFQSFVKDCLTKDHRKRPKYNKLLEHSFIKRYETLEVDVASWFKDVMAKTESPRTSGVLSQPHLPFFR
# [6] = Brain uptake: compound in brain homogenate after oral gavage; type: in vivo, C57Bl/6 mice; details: mice, 2.5 mg/kg oral gavage; brain homogenate after perfusion
# Protocol: as §2
# p38β = biological target: T3, p38β (Homo sapiens, UniProt Q15759); assay: Millipore/Upstate kinase profiling: p38β; type: biochemical; details: 20 μM compound
# T3 construct: purchased Millipore (KinaseProfiler kinase screening service)
# Protocol: (§3) Enzyme activity assays were done in a final volume of 50 μl and each point was tested in duplicate. […] When compounds were tested for kinase inhibitory activity, 10X stock solutions of compounds were prepared in DMSO or water, and control samples contained the same final concentration of solvent as the samples containing compound. Data are expressed as percent of the maximal enzyme activity, where enzyme activity in the absence of compound is taken as 100%. IC50 values were calculated by a nonlinear regression data analysis using Microsoft Excel. Selectivity against pathway or structurally related protein kinases was done using purified kinases and standard in vitro assays described previously [69, 70], and included use of the Millipore (Billerica, MA) kinase screening service at 20 μM final concentration of 069A and 90 μM final concentration of ATP.
# [7] = tested on: 44 other purified protein kinases; assay: Millipore kinase screen, summary for the non-p38 kinases; type: biochemical; details: 20 μM compound, Table 1
# Protocol: as §3
# [8] = tested on: C57Bl/6 mice infused ICV with human oligomeric Aβ1–42; assay: AD mouse model (ICV infusion of human oligomeric Aβ1–42): hippocampal protein levels by ELISA; type: in vivo; details: 2.5 mg/kg oral once daily for 2 weeks from day 21 after start of Aβ infusion; day 60
# Protocol: as §1
# p38α/SAPK2α = biological target: T4, p38α/SAPK2α (Homo sapiens, UniProt Q16539); assay: In vitro p38α MAPK protein kinase assay (myelin basic protein phosphorylation, 32P-ATP); type: biochemical; details: Fig. 3B; for p38α MAPK inhibitory activity (in words): increasing concentrations of compound; for fold less active than 069A as p38α MAPK inhibitor: relative to 069A
# T4 construct: purchased Millipore (Billerica, MA)
# Protocol: Concentration-dependent inhibition of protein kinase activity was done essentially as previously described. Active p38α/SAPK2α enzyme was obtained from Millipore (Billerica, MA), and bovine myelin basic protein substrate was obtained from Sigma-Aldrich (St. Louis, MO). Enzyme activity assays were done in a final volume of 50 μl and each point was tested in duplicate. Assays were done by incubation with 0.33 mg/ml (18 μM) myelin basic protein, 100 μM ATP and γ-[^32P]ATP (specific activity > 300 cpm/pmol) in assay buffer (50 mM HEPES, pH 7.5, 5 mM MgCl2, 150 mM KCl, 15 mM NaCl, 1 mM DTT). Reactions were initiated by addition of the active p38α kinase at a final concentration of 2 μg/ml, and incubated for 10 min at 30°C. […] When compounds were tested for kinase inhibitory activity, 10X stock solutions of compounds were prepared in DMSO or water, and control samples contained the same final concentration of solvent as the samples containing compound. Data are expressed as percent of the maximal enzyme activity, where enzyme activity in the absence of compound is taken as 100%. IC50 values were calculated by a nonlinear regression data analysis using Microsoft Excel. Selectivity against pathway or structurally related protein kinases was done using purified kinases and standard in vitro assays described previously, and included use of the Millipore (Billerica, MA) kinase screening service at 20 μM final concentration of 069A and 90 μM final concentration of ATP.
# [9] = cited from earlier work
# p38α MAPK = details: background statement, no reference given; cited from earlier work
# T4 sequence (Q16539 whole entry): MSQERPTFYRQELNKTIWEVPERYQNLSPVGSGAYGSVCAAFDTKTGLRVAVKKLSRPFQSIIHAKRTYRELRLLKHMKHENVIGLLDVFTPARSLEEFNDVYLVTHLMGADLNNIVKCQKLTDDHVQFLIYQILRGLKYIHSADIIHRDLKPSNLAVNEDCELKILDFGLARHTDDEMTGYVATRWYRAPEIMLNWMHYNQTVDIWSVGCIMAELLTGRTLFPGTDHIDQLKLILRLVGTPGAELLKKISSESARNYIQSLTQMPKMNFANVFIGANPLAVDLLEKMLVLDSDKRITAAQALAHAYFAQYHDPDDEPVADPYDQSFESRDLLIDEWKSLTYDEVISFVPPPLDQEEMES
# T3 sequence (Q15759 whole entry): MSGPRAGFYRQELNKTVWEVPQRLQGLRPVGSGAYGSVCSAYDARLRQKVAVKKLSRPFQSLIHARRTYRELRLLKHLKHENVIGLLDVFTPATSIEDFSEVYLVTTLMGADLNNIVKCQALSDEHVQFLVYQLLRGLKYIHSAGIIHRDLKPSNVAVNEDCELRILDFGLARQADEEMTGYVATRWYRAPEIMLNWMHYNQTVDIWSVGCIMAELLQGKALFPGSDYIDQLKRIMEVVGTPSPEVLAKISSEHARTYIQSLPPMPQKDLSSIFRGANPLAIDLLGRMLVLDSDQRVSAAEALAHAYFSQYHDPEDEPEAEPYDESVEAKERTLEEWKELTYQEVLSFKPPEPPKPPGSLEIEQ
smiles,measurement,setting,value
c1ccc(-c2nnc(N3CCN(c4ncccn4)CC3)cc2-c2ccncc2)cc1 [MW01-2-069A-SRM],compound remaining after incubation with human liver microsomes,"[1]; 10 min incubation, 37°C",~ 70%
same,Aβ-induced Y-maze behavioral deficit,[2],ameliorates the Y-maze behavioral deficit
same,adverse clinical effects during treatment,C57Bl/6 mice,no adverse clinical effects
same,histological liver injury,"C57Bl/6 mice; compared with vehicle, 2.5 mg/kg",did not induce any histological indices of liver tissue injury; also recorded: no significant liver toxicity
same,time at which compound is detected in plasma after oral administration,[3],≤ 5 min
same,% kinase activity (MKK4),MKK4,117%
same,logP at 2 h,[4],3.18
same,solubility at 24 h,[5],9.54 µg/mL
same,% kinase activity (MKK7β),MKK7β,103%
same,time at which compound appears in brain after oral administration,[6],≤ 5 min
same,time of peak brain concentration after oral administration,[6],5 to 15 min
same,% kinase activity (p38β),"p38β; 90 μM ATP, activity without inhibitor = 100%",30%
same,inhibition of p38β (in words),p38β; Millipore screen,partial inhibition
same,inhibition of 44 other purified protein kinases (in words),[7],little or no inhibition
same,Aβ-induced loss of synaptophysin in hippocampal extracts,[8],attenuates this loss of synaptophysin
same,Aβ-induced overproduction of IL-1β in hippocampal extracts,[8],significantly reduced
same,Aβ-induced overproduction of S100B in hippocampal extracts,[8],significantly reduced
same,Aβ-induced overproduction of TNFα in hippocampal extracts,[8],significantly reduced
"c1ccc(-c2ccc(N3CCN(c4ncccn4)CC3)nn2)cc1 [MW01-3-183WH, 3-phenyl-6-(4-(pyrimidin-2-yl)piperazin-1-yl)pyridazine]",p38α MAPK inhibitory activity (in words),p38α/SAPK2α,lacks inhibitory activity
same,fold less active than 069A as p38α MAPK inhibitor,p38α/SAPK2α,> 100 fold
"c1ccc(-c2nnc(N3CCN(c4ncccn4)CC3)cc2-c2cccnc2)cc1 [MW01-4-119SRM, 3-phenyl-4-(pyridin-3-yl)-6-(4-(pyrimidin-2-yl)piperazin-1-yl)pyridazine]",p38α MAPK inhibitory activity (in words),p38α/SAPK2α,major loss of activity
same,fold less active than 069A as p38α MAPK inhibitor,p38α/SAPK2α,> 100 fold
c1ccc(-c2cc(-c3ccncc3)c(N3CCN(c4ncccn4)CC3)nn2)cc1 [MW01-6-189WH],p38α MAPK inhibitory activity (in words),p38α/SAPK2α,does not generate MAPK inhibitory activity
same,fold less active than 069A as p38α MAPK inhibitor,p38α/SAPK2α,> 100 fold
Cc1cc(-c2ccccc2)nnc1NCCN1CCOCC1 [Minaprine],metabolic stability in human liver microsomes compared with 069A (in words),[1],"it is more stable than the structurally related, clinical CNS drug Minaprine"
Cc1cc(-c2ccccc2)nnc1N1CCN(c2ncccn2)CC1 [Minozac],metabolic stability in human liver microsomes compared with 069A (in words),[1],069A is not as metabolically stable as Minozac
same,blood-brain barrier penetrance,[9],good blood-brain barrier penetrance
same,p38α MAPK inhibition (in words),p38α MAPK,not an inhibitor
